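48-hour exposure; five concentrations; linearly interpolated endpoints. GI50 = concentration required for 50% inhibition of growth.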 Activity calls are given as the source filed them. Rule as the data show it: active = GI50 up to about 1.1 µM and inactive = higher.
Assays:
Assay in all cases: growth of human tumour cells (NCI), 48 h
LOX IMVI = test system: LOX IMVI
MDA-MB-435 = test system: MDA-MB-435
SNB-75 = test system: SNB-75
SR = test system: SR
CCRF-CEM = test system: CCRF-CEM
SW-620 = test system: SW-620
SF-268 = test system: SF-268
UACC-257 = test system: UACC-257
NCI-H226 = test system: NCI-H226
UACC-62 = test system: UACC-62
UO-31 = test system: UO-31
MDA-MB-231 = test system: MDA-MB-231
HOP-62 = test system: HOP-62
SF-539 = test system: SF-539
HCT-116 = test system: HCT-116
A549 = test system: A549
TK-10 = test system: TK-10
786-0 = test system: 786-0
NCI-H460 = test system: NCI-H460
T47D = test system: T47D
RPMI-8226 = test system: RPMI-8226
MDA-N = test system: MDA-N
SK-MEL-2 = test system: SK-MEL-2
KM12 = test system: KM12
OVCAR-8 = test system: OVCAR-8
CAKI-1 = test system: CAKI-1
EKVX = test system: EKVX
Hs-578T = test system: Hs-578T
A498 = test system: A498
HL-60 = test system: HL-60
NCI/ADR-RES = test system: NCI/ADR-RES
SNB-19 = test system: SNB-19
SK-OV-3 = test system: SK-OV-3
HOP-92 = test system: HOP-92
OVCAR-4 = test system: OVCAR-4
RXF 393 = test system: RXF 393
SK-MEL-5 = test system: SK-MEL-5
HCT-15 = test system: HCT-15
U-251 = test system: U-251
K562 = test system: K562
HT-29 = test system: HT-29
Malme-3M = test system: Malme-3M
NCI-H522 = test system: NCI-H522
BT-549 = test system: BT-549
MOLT-4 = test system: MOLT-4
COLO 205 = test system: COLO 205
HCC 2998 = test system: HCC 2998
PC-3 = test system: PC-3
DU-145 = test system: DU-145
ACHN = test system: ACHN
IGROV-1 = test system: IGROV-1
SN12C = test system: SN12C
SF-295 = test system: SF-295
OVCAR-3 = test system: OVCAR-3
NCI-H23 = test system: NCI-H23
SK-MEL-28 = test system: SK-MEL-28
M14 = test system: M14
MCF7 = test system: MCF7
OVCAR-5 = test system: OVCAR-5

Q: Which results are given for `O=C(NNC(=S)Nc1ccccc1)c1ccccc1Nc1ccccc1C(=O)NNC(=S)Nc1ccccc1`?
A: GI50 (LOX IMVI): 12.9 µM (inactive); GI50 (MDA-MB-435): 20.9 µM (inactive); GI50 (SNB-75): 22.4 µM (inactive); GI50 (SR): 43.6 µM (inactive); GI50 (CCRF-CEM): 76.4 µM (inactive); GI50 (SW-620): 40.9 µM (inactive); GI50 (SF-268): 17 µM (inactive); GI50 (UACC-257): 19.1 µM (inactive); GI50 (NCI-H226): 24.5 µM (inactive); GI50 (UACC-62): 13.1 µM (inactive); GI50 (UO-31): 17.7 µM (inactive); GI50 (MDA-MB-231): 21.7 µM (inactive); GI50 (HOP-62): 21.7 µM (inactive); GI50 (SF-539): 24.1 µM (inactive); GI50 (HCT-116): 17.7 µM (inactive); GI50 (A549): 27.2 µM (inactive); GI50 (TK-10): 25.3 µM (inactive); GI50 (786-0): 13.8 µM (inactive); GI50 (NCI-H460): 20 µM (inactive); GI50 (T47D): 27.7 µM (inactive); GI50 (RPMI-8226): 18.6 µM (inactive); GI50 (MDA-N): 29.1 µM (inactive); GI50 (SK-MEL-2): 19.6 µM (inactive); GI50 (KM12): 42 µM (inactive); GI50 (OVCAR-8): 20 µM (inactive); GI50 (CAKI-1): 48.2 µM (inactive); GI50 (EKVX): 21.1 µM (inactive); GI50 (Hs-578T): 13.1 µM (inactive); GI50 (A498): 42.8 µM (inactive); GI50 (HL-60): 35.5 µM (inactive); GI50 (NCI/ADR-RES): 87.3 µM (inactive); GI50 (SNB-19): 17.7 µM (inactive); GI50 (SK-OV-3): 30.1 µM (inactive); GI50 (HOP-92): 8.53 µM (inactive); GI50 (OVCAR-4): 26.7 µM (inactive); GI50 (RXF 393): 19.2 µM (inactive); GI50 (SK-MEL-5): 26.3 µM (inactive); GI50 (HCT-15): 29.5 µM; GI50 (U-251): 19.5 µM (inactive); GI50 (K562): 74 µM (inactive); GI50 (HT-29): 28.5 µM (inactive); GI50 (Malme-3M): 19.8 µM (inactive); GI50 (NCI-H522): 16.5 µM (inactive); GI50 (BT-549): 17.4 µM (inactive); GI50 (MOLT-4): 29.6 µM (inactive); GI50 (COLO 205): 22.1 µM (inactive); GI50 (HCC 2998): 16.9 µM (inactive); GI50 (PC-3): 23 µM (inactive); GI50 (DU-145): 23.3 µM (inactive); GI50 (ACHN): 31.2 µM (inactive); GI50 (IGROV-1): 8.24 µM (inactive); GI50 (SN12C): 19.6 µM (inactive); GI50 (SF-295): 20.9 µM (inactive); GI50 (OVCAR-3): 19.6 µM (inactive); GI50 (NCI-H23): 18.9 µM (inactive); GI50 (SK-MEL-28): 33 µM (inactive); GI50 (M14): 19 µM (inactive); GI50 (MCF7): 23.8 µM (inactive); GI50 (OVCAR-5): 16.8 µM (inactive)

Q: Which results are given for `CC1Cc2cc(O)ccc2C2[C@@H]1C1CC[C@H](O)[C@@]1(C)C[C@@H]2O[N+](=O)[O-]` (stereo partly drawn)?
A: GI50 (LOX IMVI): 9.2 µM (inactive); GI50 (MDA-MB-435): 2.52 µM (inactive); GI50 (SNB-75): 10.3 µM (inactive); GI50 (SR): 5.56 µM (inactive); GI50 (CCRF-CEM): 5.83 µM (inactive); GI50 (SW-620): 6.76 µM (inactive); GI50 (SF-268): 16.2 µM (inactive); GI50 (UACC-257): 13 µM (inactive); GI50 (NCI-H226): 32.1 µM (inactive); GI50 (UACC-62): 5.46 µM (inactive); GI50 (UO-31): 13.7 µM (inactive); GI50 (MDA-MB-231): 12.1 µM (inactive); GI50 (HOP-62): 8.83 µM (inactive); GI50 (SF-539): 3.79 µM (inactive); GI50 (HCT-116): 5.18 µM (inactive); GI50 (A549): 11 µM (inactive); GI50 (TK-10): 13.2 µM (inactive); GI50 (786-0): 8.26 µM (inactive); GI50 (NCI-H460): 9.35 µM (inactive); GI50 (T47D): 9.55 µM (inactive); GI50 (RPMI-8226): 5.64 µM (inactive); GI50 (MDA-N): 1.96 µM (inactive); GI50 (SK-MEL-2): 5.46 µM (inactive); GI50 (KM12): 19.7 µM (inactive); GI50 (OVCAR-8): 16.8 µM (inactive); GI50 (CAKI-1): 10.2 µM (inactive); GI50 (EKVX): 21.4 µM (inactive); GI50 (Hs-578T): 3.21 µM (inactive); GI50 (A498): 31.8 µM (inactive); GI50 (HL-60): 2.79 µM (inactive); GI50 (NCI/ADR-RES): 3.82 µM (inactive); GI50 (SNB-19): 9.68 µM (inactive); GI50 (SK-OV-3): 19.6 µM (inactive); GI50 (HOP-92): 13.1 µM (inactive); GI50 (OVCAR-4): 26.7 µM (inactive); GI50 (RXF 393): 2.73 µM (inactive); GI50 (SK-MEL-5): 4.93 µM (inactive); GI50 (HCT-15): 5.18 µM; GI50 (U-251): 3.99 µM (inactive); GI50 (K562): 3.79 µM (inactive); GI50 (HT-29): 16 µM (inactive); GI50 (Malme-3M): 10.7 µM (inactive); GI50 (NCI-H522): 5.62 µM (inactive); GI50 (BT-549): 10.9 µM (inactive); GI50 (MOLT-4): 7.48 µM (inactive); GI50 (COLO 205): 22.3 µM (inactive); GI50 (HCC 2998): 5.48 µM (inactive); GI50 (PC-3): 20.1 µM (inactive); GI50 (DU-145): 7.45 µM (inactive); GI50 (ACHN): 14.7 µM (inactive); GI50 (IGROV-1): 25.2 µM (inactive); GI50 (SN12C): 14.7 µM (inactive); GI50 (SF-295): 7.29 µM (inactive); GI50 (OVCAR-3): 9.12 µM (inactive); GI50 (NCI-H23): 12 µM (inactive); GI50 (SK-MEL-28): 17.5 µM (inactive); GI50 (M14): 6.15 µM (inactive); GI50 (MCF7): 4.86 µM (inactive); GI50 (OVCAR-5): 33.4 µM (inactive)
